According to PubChem BioAssay (NCI):
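Following 48 hours of exposure in 96-well plates, responses at five concentrations were used to interpolate endpoints linearly. Abbreviation: GI50, concentration required for 50% inhibition of growth. TGI marks complete inhibition of growth.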

Assays:
Experiment in all cases: NCI-60 cell line screen, 48 h
786-0 renal = test system: 786-0 renal
A498 renal = test system: A498 renal
A549 NSCLC = test system: A549 NSCLC
ACHN renal = test system: ACHN renal
BT-549 breast = test system: BT-549 breast
CAKI-1 renal = test system: CAKI-1 renal
CCRF-CEM leukemia = test system: CCRF-CEM leukemia
COLO 205 colon = test system: COLO 205 colon
DU-145 prostate = test system: DU-145 prostate
EKVX NSCLC = test system: EKVX NSCLC
HCC-2998 colon = test system: HCC-2998 colon
HCT-116 colon = test system: HCT-116 colon
HCT-15 colon = test system: HCT-15 colon
HL-60(TB) leukemia = test system: HL-60(TB) leukemia
HOP-62 NSCLC = test system: HOP-62 NSCLC
HOP-92 NSCLC = test system: HOP-92 NSCLC
HS 578T breast = test system: HS 578T breast
HT29 colon = test system: HT29 colon
IGROV1 ovarian = test system: IGROV1 ovarian
K-562 leukemia = test system: K-562 leukemia
KM12 colon = test system: KM12 colon
LOX IMVI melanoma = test system: LOX IMVI melanoma
M14 melanoma = test system: M14 melanoma
MALME-3M melanoma = test system: MALME-3M melanoma
MCF7 breast = test system: MCF7 breast
MDA-MB-231 breast = test system: MDA-MB-231 breast
MDA-MB-435 = test system: MDA-MB-435
MOLT-4 leukemia = test system: MOLT-4 leukemia
NCI-H226 lung = test system: NCI-H226 lung
NCI-H23 lung = test system: NCI-H23 lung
NCI-H460 lung = test system: NCI-H460 lung
NCI-H522 lung = test system: NCI-H522 lung
NCI/ADR-RES ovarian = test system: NCI/ADR-RES ovarian
OVCAR-3 ovarian = test system: OVCAR-3 ovarian
OVCAR-4 ovarian = test system: OVCAR-4 ovarian
OVCAR-5 ovarian = test system: OVCAR-5 ovarian
OVCAR-8 ovarian = test system: OVCAR-8 ovarian
PC-3 prostate = test system: PC-3 prostate
RPMI-8226 leukemia = test system: RPMI-8226 leukemia
RXF 393 renal = test system: RXF 393 renal
SF-268 CNS = test system: SF-268 CNS
SF-295 CNS = test system: SF-295 CNS
SF-539 CNS = test system: SF-539 CNS
SK-MEL-2 melanoma = test system: SK-MEL-2 melanoma
SK-MEL-28 melanoma = test system: SK-MEL-28 melanoma
SK-MEL-5 melanoma = test system: SK-MEL-5 melanoma
SK-OV-3 ovarian = test system: SK-OV-3 ovarian
SN12C renal = test system: SN12C renal
SNB-19 CNS = test system: SNB-19 CNS
SNB-75 CNS = test system: SNB-75 CNS
SW-620 colon = test system: SW-620 colon
T-47D breast = test system: T-47D breast
TK-10 renal = test system: TK-10 renal
U251 CNS = test system: U251 CNS
UACC-62 melanoma = test system: UACC-62 melanoma
UO-31 renal = test system: UO-31 renal
SR leukemia = test system: SR leukemia
UACC-257 melanoma = test system: UACC-257 melanoma

## COc1ccc(/C=C/c2nnc(/C=C/c3ccc(OC)c(OC)c3)o2)cc1OC
786-0 renal
  GI50: 5.59 µM
  TGI: > 100 µM
A498 renal
  GI50: 0.24 µM
  TGI: 9.1 µM
A549 NSCLC
  GI50: 4.84 µM
  TGI: > 100 µM
ACHN renal
  GI50: 13.9 µM
  TGI: > 100 µM
BT-549 breast
  GI50: 2.9 µM
  TGI: 35.7 µM
CAKI-1 renal
  GI50: 11.4 µM
  TGI: > 100 µM
CCRF-CEM leukemia
  GI50: 3.97 µM
  TGI: > 100 µM
COLO 205 colon
  GI50: 8.35 µM
  TGI: 98.2 µM
DU-145 prostate
  GI50: 15 µM
  TGI: > 100 µM
EKVX NSCLC
  GI50: 6.22 µM
  TGI: > 100 µM
HCC-2998 colon
  GI50: 19.4 µM
  TGI: > 100 µM
HCT-116 colon
  GI50: 2.57 µM
  TGI: 17.7 µM
HCT-15 colon
  GI50: 2.78 µM
  TGI: > 100 µM
HL-60(TB) leukemia
  GI50: 2.36 µM
  TGI: 8.6 µM
HOP-62 NSCLC
  GI50: 5.21 µM
  TGI: > 100 µM
HOP-92 NSCLC
  GI50: 2.52 µM
  TGI: 23.3 µM
HS 578T breast
  GI50: 3.71 µM
  TGI: 47.5 µM
HT29 colon
  GI50: 2.61 µM
  TGI: 10.8 µM
IGROV1 ovarian
  GI50: 4.23 µM
  TGI: > 100 µM
K-562 leukemia
  GI50: 1.83 µM
  TGI: > 100 µM
KM12 colon
  GI50: 6.86 µM
  TGI: > 100 µM
LOX IMVI melanoma
  GI50: 3.11 µM
  TGI: 29 µM
M14 melanoma
  GI50: 3.1 µM
  TGI: 26 µM
MALME-3M melanoma
  GI50: 6.16 µM
  TGI: > 100 µM
MCF7 breast
  GI50: 3.44 µM
  TGI: > 100 µM
MDA-MB-231 breast
  GI50: 3.62 µM
  TGI: 43.4 µM
MDA-MB-435
  GI50: 0.929 µM
  TGI: 3.93 µM
MOLT-4 leukemia
  GI50: 3.24 µM
  TGI: > 100 µM
NCI-H226 lung
  GI50: 14.9 µM
  TGI: > 100 µM
NCI-H23 lung
  GI50: 4.4 µM
  TGI: > 100 µM
NCI-H460 lung
  GI50: 4.23 µM
  TGI: > 100 µM
NCI-H522 lung
  GI50: 1.9 µM
  TGI: 6.8 µM
NCI/ADR-RES ovarian
  GI50: 3.52 µM
  TGI: > 100 µM
OVCAR-3 ovarian
  GI50: 5.01 µM
  TGI: 80.8 µM
OVCAR-4 ovarian
  GI50: 9.08 µM
  TGI: > 100 µM
OVCAR-5 ovarian
  GI50: 4.9 µM
  TGI: 53.8 µM
OVCAR-8 ovarian
  GI50: 8.78 µM
  TGI: > 100 µM
PC-3 prostate
  GI50: 4.07 µM
  TGI: > 100 µM
RPMI-8226 leukemia
  GI50: 2.65 µM
  TGI: > 100 µM
RXF 393 renal
  GI50: 7.9 µM
  TGI: 78.1 µM
SF-268 CNS
  GI50: 7.77 µM
  TGI: > 100 µM
SF-295 CNS
  GI50: 2.95 µM
  TGI: 17.7 µM
SF-539 CNS
  GI50: 2.66 µM
  TGI: 9.4 µM
SK-MEL-2 melanoma
  GI50: 2.9 µM
  TGI: 18.6 µM
SK-MEL-28 melanoma
  GI50: 4.96 µM
  TGI: > 100 µM
SK-MEL-5 melanoma
  GI50: 2.17 µM
  TGI: 10.1 µM
SK-OV-3 ovarian
  GI50: 8.62 µM
  TGI: 93.3 µM
SN12C renal
  GI50: 5.5 µM
  TGI: > 100 µM
SNB-19 CNS
  GI50: 4.11 µM
  TGI: 91.7 µM
SNB-75 CNS
  GI50: 4.22 µM
  TGI: 45.5 µM
SW-620 colon
  GI50: 3.35 µM
  TGI: > 100 µM
T-47D breast
  GI50: 3.48 µM
  TGI: 81.2 µM
TK-10 renal
  GI50: 3.77 µM
  TGI: 27.8 µM
U251 CNS
  GI50: 3.81 µM
  TGI: 18.6 µM
UACC-62 melanoma
  GI50: 2.39 µM
  TGI: 9.91 µM
UO-31 renal
  GI50: 4.78 µM
  TGI: > 100 µM

## N#CCCOc1cccc(C2(N3CCCCC3)CCCCC2)c1
786-0 renal
  TGI: > 100 µM
A498 renal
  TGI: > 100 µM
A549 NSCLC
  TGI: > 100 µM
ACHN renal
  TGI: > 100 µM
BT-549 breast
  TGI: > 100 µM
CAKI-1 renal
  TGI: > 100 µM
CCRF-CEM leukemia
  TGI: > 100 µM
COLO 205 colon
  TGI: > 100 µM
DU-145 prostate
  TGI: > 100 µM
EKVX NSCLC
  TGI: > 100 µM
HCT-116 colon
  TGI: > 100 µM
HCT-15 colon
  TGI: > 100 µM
HL-60(TB) leukemia
  TGI: > 100 µM
HOP-62 NSCLC
  TGI: > 100 µM
HS 578T breast
  TGI: > 100 µM
HT29 colon
  TGI: > 100 µM
IGROV1 ovarian
  TGI: > 100 µM
K-562 leukemia
  TGI: > 100 µM
KM12 colon
  TGI: > 100 µM
LOX IMVI melanoma
  TGI: > 100 µM
M14 melanoma
  TGI: > 100 µM
MALME-3M melanoma
  TGI: > 100 µM
MCF7 breast
  TGI: > 100 µM
MDA-MB-231 breast
  TGI: > 100 µM
MDA-MB-435
  TGI: > 100 µM
MOLT-4 leukemia
  TGI: > 100 µM
NCI-H226 lung
  TGI: > 100 µM
NCI-H23 lung
  TGI: > 100 µM
NCI-H522 lung
  TGI: > 100 µM
NCI/ADR-RES ovarian
  TGI: > 100 µM
OVCAR-3 ovarian
  TGI: > 100 µM
OVCAR-4 ovarian
  TGI: > 100 µM
OVCAR-5 ovarian
  TGI: > 100 µM
OVCAR-8 ovarian
  TGI: > 100 µM
PC-3 prostate
  TGI: > 100 µM
RPMI-8226 leukemia
  TGI: > 100 µM
SF-268 CNS
  TGI: > 100 µM
SF-295 CNS
  TGI: > 100 µM
SF-539 CNS
  TGI: > 100 µM
SK-MEL-2 melanoma
  TGI: > 100 µM
SK-MEL-28 melanoma
  TGI: > 100 µM
SK-MEL-5 melanoma
  TGI: > 100 µM
SK-OV-3 ovarian
  TGI: > 100 µM
SN12C renal
  TGI: > 100 µM
SNB-19 CNS
  TGI: > 100 µM
SR leukemia
  TGI: > 100 µM
SW-620 colon
  TGI: > 100 µM
T-47D breast
  TGI: > 100 µM
TK-10 renal
  TGI: > 100 µM
U251 CNS
  TGI: > 100 µM
UACC-257 melanoma
  TGI: > 100 µM
UACC-62 melanoma
  TGI: > 100 µM
UO-31 renal
  TGI: > 100 µM
